# In patent US6462170B1, “UPAR mimicking peptide” (Fondazione Centro San Raffaele del Monte Tabor, priority 1997, dated 2002):
# pKd: −log10 of the molar value. Entries after “also recorded” stand apart in the source; their conditions may differ.
# Tests used:
# THP-1 cells = assay: Chemotaxis assay in modified Boyden chambers; type: cell-based, human; settings: for chemotactic response of THP-1 cells: Boyden chamber, 90 minutes, migration as percent of control, over the concentration range analyzed; for concentration giving maximal chemotactic response: THP-1 cells, FIG. 4 panels A and C; for concentration at which very potent chemotactic activity is seen: human THP-1 monocytoid cells (and murine LB6 fibroblastic cells)
# Description: FIG. 3. […] For each set of experiments, migration toward the assay medium served as control (random cell migration) and is referred to as 100% migration. All experiments were performed in triplicate; the number of cells counted per high power field (ten fields for each condition) is expressed as percent of the control values. The proteins were purified as described in the Methods section. Data points represent the mean of three independent experiments (+SEM). The constructs used are depicted in FIG. 2.
# Chemotaxis analysis were performed using modified Boyden chambers containing polyvinylpyrrolidone polycarbonate filters (13 mm diameter, […]) coated with collagen type I ([…] in PBS pH 7.4). The coated filters were washed with medium supplemented with 0.2% bovine serum albumin (BSA) and then placed in the Boyden apparatus. After acid wash, 2×10^5 THP-1 cells suspended in serum-free medium were added above the filter in the Boyden chamber. Purified mutants were diluted in serum-free medium at the indicated concentrations and added below the filter in the lower chamber. The chambers were incubated in a humidified incubafor at 37° C. in 5% CO2 in air for 90 minutes. Filters were removed, the upper surface scraped free of cells, fixed in methanol and stained with crystal violet. For each set of experiments, migration toward the assay medium served as control (random cell migration) and is referred to as 100% migration. All experiments were performed in triplicate; data are reported as number of cells counted for high power field (ten fields for each condition) and expressed as percentage of the control values. Data points represent the mean of three independent experiments (+SEM). When cells of the fibroblast-type or cancer cells were employed for the assay, the time required for migration was higher and the Boyden chamber were usually incubated overnight.
# p56/p59hck = p56/p59hck immunoprecipitation and in vitro kinase assay after treatment of THP-1 cells; type: cell-based, human
# Description: FIG. 5. In this figure, the stimulating effect of peptide 1 on the activity of Hck kinase of THP-1 cells is shown. THP-1 cells were metabolically labelled with [35S]-TransLabel, acid washed, and either mock-treated or treated with 0.1 nM peptide 1 (AVTYSRSRYLEC, (SEQ ID NO:1)) for the indicated time at 37° C. Radiolabelled cell lysates were immunoprecipitated (Resnati et al., 1996) using an affinity-purified rabbit polyclonal anti-p56/p59hck antibody.
# (A) An aliquot from each immunoprecipitate was directly analyzed by SDS-PAGE to control that equal amount of p56/p59hck were present during in vitro kinase assay.
# (B) The remainder of each immunoprecipitate was subjected to in vitro kinase assay in presence of […] of [g-32P]ATP (˜3000 Ci/mmol, Amersham) and […] rabbit muscle enolase for 5 minutes at room temperature. Eluates were thus analyzed by SDS-PAGE autobiography (7.5% acrylamide).
# The mixture of chymotrypsin fragments of suPAR, like the uPA/uPAR interaction, induces chemotaxis by transiently activating the p56/p59hck protein kinase (Resnati et al., 1996). If human uPAR-related peptides containing the SRSRY (SEQ ID NO:7) motif induce a chemotactic response on THP-1 cells though the same mechanism exploited by the uPA/uPAR interaction (i.e. by binding to the unidentified adaptor), they should also activate p56/p59hck. THP-1 cells were metabolically labelled with [35S]-TransLabel, acid washed, and either mock-treated or treated with 0.1 nM peptide 1 (AVTYSRSRYLEC (SEQ ID NO:1)) for the indicated time at 37° C. Radiolabelled cell lysates were immunoprecipitated (Resnati et al.,1996) using an affinity-purified rabbit polyclonal anti-p56/p59hck antibody. An aliquot from each immunoprecipitate was directly analyzed by SDS-PAGE to control that equal amount of p56/p59hck were present during in vitro kinase assay (FIG. 5, panel A). The remainder of each immunoprecipitate was subjected to in vitro kinase assay in presence of […] of [g-32P)]ATP (˜3000 Ci/mmol, Amersham) and […] rabbit muscle enolase (substrate) for 5 minutes at room temperature. Eluates were thus analyzed by SDS-PAGE autobiography (7.5% acrylamide). […] The effect was very rapid, since p56/pS9hck stimulation was already- evident after 2 minutes, reached a maximum after […] and returned to the basal level 30 minutes after the addition of the peptide. No effect on p56/p59hck activity was observed when 0.1 nM of the corresponding scrambled peptide was used in the assay (data not shown). The time-course of the effect is identical to that observed with the addition of ATF or of chymotryptic uPAR fragments to THP-1 cells and reported previously (Resnati et al., 1996).
# [1] = test system: cells binding to D1(1-92)- or peptide-coated plates; assay: Panning / cell adhesion on coated plastic plates; type: cell-based; settings: for adhesion of mammalian cells to plastic plates coated with the substance: bacterial-grade plastic dishes coated with the substance; for inhibition of adhesion of cells onto D1(1-92): plates coated with D1(1-92)
# Description: However, when those plates are coated with peptide 1 or 2 (or domain D1-1-92) or with recombinant forms of these peptides, they adhere because they express on their surface specific D1(1-92)-binding proteins. The adhesion can be measured.
# As a positive control (i.e. to set up the technique), cells (106) exposing a high number of uPAR molecules are used and the panning is carried out on plates coated with a specific anti-uPAR antibody. As a negative control, the same cells but now not expressing uPAR are employed. The cells employed as negative controls are LB6, 32D, 3T3 fibroblasts, B-lymphoid cell lines and others. As positive controls, THP-1 cells, LB6/uPAR, 32D/uPAR and other expressing cell lines are employed.
# For the screening assay, the same cells employed as negative controls (106) are used, and the plates are coated with domain D1(1-92) or domain D1(1-87) (control). The ability of the cells to bind to the plates is tested after 30-300 minutes incubation at 37° C. by microscopic inspection, or by staining the plates with Coomassie Blue. The same can be done using different techniques.
# The ability of peptides 1- or 2-coated plates to specifically bind the THP-1 cells is the basis for the screening technique, as any compound capable of inhibiting this binding is a potential antiinflammatory agent, inhibiting chemotaxis. […] Such compounds, therefore, can be tested as inhibitors of chemotaxis, employing the methods outlined in examples 1-3. Coating can also be carried out with other recombinant forms of the SRSRY (SEQ ID NO:7) sequence in which the epitope is synthesized in fusion with other proteins. Suitable proteins are ferritin (Sidoli et al. (1993)), thioredoxin, GST, beta galactosidase, human serum albumin.
# uPAR = uPAR (Homo sapiens, UniProt Q03405); settings: read-out: affinity of binding to uPAR; cited from earlier work
# Sequence of uPAR (Q03405 23-305): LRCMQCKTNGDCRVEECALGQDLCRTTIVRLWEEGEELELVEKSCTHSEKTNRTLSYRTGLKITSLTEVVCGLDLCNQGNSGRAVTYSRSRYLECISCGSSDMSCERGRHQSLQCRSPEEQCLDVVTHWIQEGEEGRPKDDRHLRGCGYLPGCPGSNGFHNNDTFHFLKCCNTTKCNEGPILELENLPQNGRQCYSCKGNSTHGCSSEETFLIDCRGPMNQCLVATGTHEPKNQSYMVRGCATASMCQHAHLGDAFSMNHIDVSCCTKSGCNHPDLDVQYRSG
substance,measurement,setting,value
AVTYSRSRYLEC [peptide 1],chemotactic response of THP-1 cells,THP-1 cells,dose-dependent chemotactic effect; also recorded: very potent activity
same,concentration giving maximal chemotactic response,THP-1 cells,0.1 pM
same,concentration at which very potent chemotactic activity is seen,THP-1 cells,0.1 pM
same,time at which p56/p59hck stimulation is already evident,p56/p59hck; 0.1 nM peptide,2 min
same,autophosphorylation of p56/p59hck,"p56/p59hck; 0.1 nM peptide, 37° C.",increase
same,phosphorylation of the exogenous substrate (rabbit muscle enolase),"p56/p59hck; 0.1 nM peptide, 37° C.",increase
same,time of return of p56/p59hck activity to the basal level,"p56/p59hck; 0.1 nM peptide, after addition of the peptide",30 min
same,adhesion of mammalian cells to plastic plates coated with the substance,[1],adhere
same,inhibition of adhesion of cells onto D1(1-92),[1],inhibit adhesion
SRSRYLEC [peptide 2],chemotactic response of THP-1 cells,THP-1 cells,dose-dependent chemotactic effect; also recorded: very potent activity
same,concentration giving maximal chemotactic response,THP-1 cells,0.1 pM
same,concentration at which very potent chemotactic activity is seen,THP-1 cells,0.1 pM
same,adhesion of mammalian cells to plastic plates coated with the substance,[1],adhere
same,inhibition of adhesion of cells onto D1(1-92),[1],inhibit adhesion
TLVEYYSRASCR [reference compound],chemotactic response of THP-1 cells,THP-1 cells,no effect on cell migration
same,chemotactic response of THP-1 cells,THP-1 cells; listed as peptide-1 scrambled,do not
same,effect on p56/p59hck activity,p56/p59hck; 0.1 nM (data not shown),No effect
same,inhibition of adhesion of cells onto D1(1-92),[1],cannot
"YTARLWGGTLLT [peptide 3, reference compound]",chemotactic response of THP-1 cells,THP-1 cells,no effect on cell migration
vitronectin: protein bound by uPAR domains D2 and D3,pKd,uPAR,7.70 to 8.00
